Assay: The polymerization of melanin (melanin pellet, absorbance at 400 nm; light microscope)
Assay type: biochemical
Conditions: 0.025 mg/ml melanin treated with 50 μM peptide for 24 h
Experimental: 0.025 mg/ml melanin was treated with 50 μM peptide for 24 h. Data are represented as the means±SD from three independent experiments. ***p<0.001.
0.025 mg/ml melanin were treated with 50 μM peptides for 24 h, and then centrifuged at 10,000 g for 5 min. The supernatant was removed from the tube, leaving only the melanin pellet. The polymerization of melanin was quantified after boiling in 1 M NaOH for 1 hour and the absorbance was measured spectrophotometrically at 400 nm.
In the case of APRKNVRWCTISQ [SEQ ID NO: 2], the melanin polymerization is reported as “did not show effects on melanin polymerization”. With CTISQPEWFKCRR [SEQ ID NO: 3] the melanin polymerization was “did not show effects on melanin polymerization”. For RMKKLGAPSI [SEQ ID NO: 15], the melanin polymerization was “did not show effects on melanin polymerization”.
